Several values for one entry are separate records, joined by “and”; a condition that tells them apart may be missing. Equal values may be shown once.
Columns and labels:
Format in all cases: cell-based
[1] = tested on: Salmonella typhimurium TA1537; test: Ames test (reverse mutation test), TA1537; conditions: for Number of revertant colonies TA1537: S9 Mix -
Description: (§1) The solvent used herein was dimethyl sulfoxide (DMSO, 100 µL/plate).
(§2) The mixtures were preincubated at 37° C. for 20 minutes while shaking. […] Two plates per treatment were used.

Escherichia coli WP2uvrA = test: Ames test (reverse mutation test), WP2uvrA; conditions: for Number of revertant colonies: WP2uvrA; for Number of revertant colonies WP2uvrA: S9 Mix -
Description: as §1, §2

[2] = tested on: Salmonella typhimurium TA1535; test: Ames test (reverse mutation test), TA1535
Description: as §1, §2

[3] = tested on: Salmonella typhimurium TA98; test: Ames test (reverse mutation test), TA98; conditions: for potential to induce reverse mutations: TA98 with S9 mix; for Number of revertant colonies TA98: S9 Mix -
Description: as §1, §2

[4] = tested on: Salmonella typhimurium TA100; test: Ames test (reverse mutation test), TA100; conditions: for Number of revertant colonies TA100: S9 Mix -
Description: as §1, §2

COc1ccc2nc3cc(Cl)ccc3c(NCCCNCCCl)c2c1 [ICR-191]
Number of revertant colonies TA1537 ([1]; dose 1.0 µg/plate, positive control): 1448 and 1435 and 1413 and 1096 and 1397
Number of revertant colonies ([1]; TA1537, -S9 mix, 1.0 µg/plate (positive control)): 1170 and 1131

CC(C)(C)Oc1cccc(-c2cc(N)nn2-c2ccccc2)c1 [Metabolite C]
Number of revertant colonies ([1]; TA1537, +S9 mix, 2.3 µg/plate): 6
Number of revertant colonies ([1]; TA1537, +S9 mix, 6.9 µg/plate): 7
Number of revertant colonies ([1]; TA1537, +S9 mix, 21 µg/plate): 7
Number of revertant colonies ([1]; TA1537, +S9 mix, 62 µg/plate): 9
Number of revertant colonies ([1]; TA1537, +S9 mix, 185 µg/plate): 9
Number of revertant colonies ([1]; TA1537, +S9 mix, 556 µg/plate): 4
Number of revertant colonies ([1]; TA1537, +S9 mix, 1667 µg/plate): 4
Number of revertant colonies ([1]; TA1537, +S9 mix, 5000 µg/plate): 5
Number of revertant colonies ([1]; TA1537, -S9 mix, 2.3 µg/plate): 3
Number of revertant colonies ([1]; TA1537, -S9 mix, 6.9 µg/plate): 1
Number of revertant colonies ([1]; TA1537, -S9 mix, 21 µg/plate): 3
Number of revertant colonies ([1]; TA1537, -S9 mix, 62 µg/plate): 3
Number of revertant colonies ([1]; TA1537, -S9 mix, 185 µg/plate): 2
Number of revertant colonies ([1]; TA1537, -S9 mix, 556 µg/plate): 0
Number of revertant colonies ([1]; TA1537, -S9 mix, 1667 µg/plate): 0
Number of revertant colonies ([1]; TA1537, -S9 mix, 5000 µg/plate): 0
Number of revertant colonies (Escherichia coli WP2uvrA; +S9 mix, 2.3 µg/plate): 28
Number of revertant colonies (Escherichia coli WP2uvrA; +S9 mix, 6.9 µg/plate): 23
Number of revertant colonies (Escherichia coli WP2uvrA; +S9 mix, 21 µg/plate): 21
Number of revertant colonies (Escherichia coli WP2uvrA; +S9 mix, 62 µg/plate): 26
Number of revertant colonies (Escherichia coli WP2uvrA; +S9 mix, 185 µg/plate): 17
Number of revertant colonies (Escherichia coli WP2uvrA; +S9 mix, 556 µg/plate): 8
Number of revertant colonies (Escherichia coli WP2uvrA; +S9 mix, 1667 µg/plate): 12
Number of revertant colonies (Escherichia coli WP2uvrA; +S9 mix, 5000 µg/plate): 16
Number of revertant colonies (Escherichia coli WP2uvrA; -S9 mix, 2.3 µg/plate): 15
Number of revertant colonies (Escherichia coli WP2uvrA; -S9 mix, 6.9 µg/plate): 16
Number of revertant colonies (Escherichia coli WP2uvrA; -S9 mix, 21 µg/plate): 17
Number of revertant colonies (Escherichia coli WP2uvrA; -S9 mix, 62 µg/plate): 13
Number of revertant colonies (Escherichia coli WP2uvrA; -S9 mix, 185 µg/plate): 13
Number of revertant colonies (Escherichia coli WP2uvrA; -S9 mix, 556 µg/plate): 13
Number of revertant colonies (Escherichia coli WP2uvrA; -S9 mix, 1667 µg/plate): 10
Number of revertant colonies (Escherichia coli WP2uvrA; -S9 mix, 5000 µg/plate): 11
Number of revertant colonies ([2]; TA1535, +S9 mix, 2.3 µg/plate): 8
Number of revertant colonies ([2]; TA1535, +S9 mix, 6.9 µg/plate): 8
Number of revertant colonies ([2]; TA1535, +S9 mix, 21 µg/plate): 5
Number of revertant colonies ([2]; TA1535, +S9 mix, 62 µg/plate): 4
Number of revertant colonies ([2]; TA1535, +S9 mix, 185 µg/plate): 5
Number of revertant colonies ([2]; TA1535, +S9 mix, 556 µg/plate): 4
Number of revertant colonies ([2]; TA1535, +S9 mix, 1667 µg/plate): 5
Number of revertant colonies ([2]; TA1535, +S9 mix, 5000 µg/plate): 4
Number of revertant colonies ([2]; TA1535, -S9 mix, 21 µg/plate): 6
Number of revertant colonies ([2]; TA1535, -S9 mix, 556 µg/plate): 0
Number of revertant colonies ([3]; TA98, +S9 mix, 2.34 µg/plate): 38
Number of revertant colonies ([3]; TA98, +S9 mix, 4.69 µg/plate): 36
Number of revertant colonies ([3]; TA98, +S9 mix, 9.38 µg/plate): 73
Number of revertant colonies ([3]; TA98, +S9 mix, 18.8 µg/plate): 107
Number of revertant colonies ([3]; TA98, +S9 mix, 37.5 µg/plate): 133
Number of revertant colonies ([3]; TA98, +S9 mix, 75 µg/plate): 153
Number of revertant colonies ([3]; TA98, +S9 mix, 150 µg/plate): 133
Number of revertant colonies ([3]; TA98, +S9 mix, 300 µg/plate): 138
Number of revertant colonies ([3]; TA98, -S9 mix, 2.3 µg/plate): 14
Number of revertant colonies ([3]; TA98, -S9 mix, 6.9 µg/plate): 15
Number of revertant colonies ([3]; TA98, -S9 mix, 21 µg/plate): 17
Number of revertant colonies ([3]; TA98, -S9 mix, 62 µg/plate): 8
Number of revertant colonies ([3]; TA98, -S9 mix, 185 µg/plate): 8
Number of revertant colonies ([3]; TA98, -S9 mix, 556 µg/plate): 8
Number of revertant colonies ([3]; TA98, -S9 mix, 1667 µg/plate): 8
Number of revertant colonies ([3]; TA98, -S9 mix, 5000 µg/plate): 0
potential to induce reverse mutations [3]: showed potential to induce reverse mutations
Number of revertant colonies ([4]; TA100, +S9 mix, 2.34 µg/plate): 526
Number of revertant colonies ([4]; TA100, +S9 mix, 4.69 µg/plate): 778
Number of revertant colonies ([4]; TA100, +S9 mix, 9.38 µg/plate): 1210
Number of revertant colonies ([4]; TA100, +S9 mix, 18.8 µg/plate): 1745
Number of revertant colonies ([4]; TA100, +S9 mix, 37.5 µg/plate): 2049
Number of revertant colonies ([4]; TA100, +S9 mix, 75 µg/plate): 2147
Number of revertant colonies ([4]; TA100, +S9 mix, 150 µg/plate): 2043
Number of revertant colonies ([4]; TA100, +S9 mix, 300 µg/plate): 1412
Number of revertant colonies ([4]; TA100, -S9 mix, 2.3 µg/plate): 87
Number of revertant colonies ([4]; TA100, -S9 mix, 6.9 µg/plate): 99
Number of revertant colonies ([4]; TA100, -S9 mix, 21 µg/plate): 48
Number of revertant colonies ([4]; TA100, -S9 mix, 62 µg/plate): 41
Number of revertant colonies ([4]; TA100, -S9 mix, 185 µg/plate): 45
Number of revertant colonies ([4]; TA100, -S9 mix, 556 µg/plate): 33
Number of revertant colonies ([4]; TA100, -S9 mix, 1667 µg/plate): 25
Number of revertant colonies ([4]; TA100, -S9 mix, 5000 µg/plate): 35
potential to induce reverse mutations ([4]; TA100 with S9 mix): showed potential to induce reverse mutations

CC(C)(OCc1cc(F)cc(-c2cc(N)nn2-c2ccc(F)cc2)c1)C(F)(F)F [Metabolite D]
Number of revertant colonies TA1537 ([1]; dose 2.3 µg/plate): 11
Number of revertant colonies TA1537 ([1]; dose 6.9 µg/plate): 13
Number of revertant colonies TA1537 ([1]; dose 21 µg/plate): 11
Number of revertant colonies TA1537 ([1]; dose 62 µg/plate): 7
Number of revertant colonies TA1537 ([1]; dose 185 µg/plate): 6
Number of revertant colonies TA1537 ([1]; dose 556 µg/plate): 7
Number of revertant colonies TA1537 ([1]; dose 1667 µg/plate): 6
Number of revertant colonies TA1537 ([1]; dose 5000 µg/plate): 8
Number of revertant colonies ([1]; TA1537, +S9 mix, 2.3 µg/plate): 14
Number of revertant colonies ([1]; TA1537, +S9 mix, 6.9 µg/plate): 20
Number of revertant colonies ([1]; TA1537, +S9 mix, 21 µg/plate): 13
Number of revertant colonies ([1]; TA1537, +S9 mix, 62 µg/plate): 18
Number of revertant colonies ([1]; TA1537, +S9 mix, 185 µg/plate): 15
Number of revertant colonies ([1]; TA1537, +S9 mix, 556 µg/plate): 15
Number of revertant colonies ([1]; TA1537, +S9 mix, 1667 µg/plate): 19
Number of revertant colonies ([1]; TA1537, +S9 mix, 5000 µg/plate): 24
potential to induce reverse mutations ([1]; TA1537 with S9 mix): showed potential to induce reverse mutations
Number of revertant colonies WP2uvrA (Escherichia coli WP2uvrA; dose 2.3 µg/plate): 25
Number of revertant colonies WP2uvrA (Escherichia coli WP2uvrA; dose 6.9 µg/plate): 27
Number of revertant colonies WP2uvrA (Escherichia coli WP2uvrA; dose 21 µg/plate): 22
Number of revertant colonies WP2uvrA (Escherichia coli WP2uvrA; dose 62 µg/plate): 21
Number of revertant colonies WP2uvrA (Escherichia coli WP2uvrA; dose 185 µg/plate): 22
Number of revertant colonies WP2uvrA (Escherichia coli WP2uvrA; dose 556 µg/plate): 16
Number of revertant colonies WP2uvrA (Escherichia coli WP2uvrA; dose 1667 µg/plate): 18
Number of revertant colonies WP2uvrA (Escherichia coli WP2uvrA; dose 5000 µg/plate): 20
Number of revertant colonies (Escherichia coli WP2uvrA; +S9 mix, 2.3 µg/plate): 31
Number of revertant colonies (Escherichia coli WP2uvrA; +S9 mix, 6.9 µg/plate): 18
Number of revertant colonies (Escherichia coli WP2uvrA; +S9 mix, 21 µg/plate): 24
Number of revertant colonies (Escherichia coli WP2uvrA; +S9 mix, 62 µg/plate): 18
Number of revertant colonies (Escherichia coli WP2uvrA; +S9 mix, 185 µg/plate): 23
Number of revertant colonies (Escherichia coli WP2uvrA; +S9 mix, 556 µg/plate): 32
Number of revertant colonies (Escherichia coli WP2uvrA; +S9 mix, 1667 µg/plate): 28
Number of revertant colonies (Escherichia coli WP2uvrA; +S9 mix, 5000 µg/plate): 28
Number of revertant colonies TA1535 ([2]; S9 Mix -, dose 1667 µg/plate): 6
Number of revertant colonies ([2]; TA1535, +S9 mix, 1667 µg/plate): 7
Number of revertant colonies TA98 ([3]; dose 2.3 µg/plate): 27
Number of revertant colonies TA98 ([3]; dose 6.9 µg/plate): 22
Number of revertant colonies TA98 ([3]; dose 21 µg/plate): 23
Number of revertant colonies TA98 ([3]; dose 62 µg/plate): 25
Number of revertant colonies TA98 ([3]; dose 185 µg/plate): 32
Number of revertant colonies TA98 ([3]; dose 556 µg/plate): 21
Number of revertant colonies TA98 ([3]; dose 1667 µg/plate): 23
Number of revertant colonies TA98 ([3]; dose 5000 µg/plate): 21
Number of revertant colonies ([3]; TA98, +S9 mix, 2.3 µg/plate): 39
Number of revertant colonies ([3]; TA98, +S9 mix, 6.9 µg/plate): 42
Number of revertant colonies ([3]; TA98, +S9 mix, 21 µg/plate): 52
Number of revertant colonies ([3]; TA98, +S9 mix, 62 µg/plate): 47
Number of revertant colonies ([3]; TA98, +S9 mix, 185 µg/plate): 49
Number of revertant colonies ([3]; TA98, +S9 mix, 556 µg/plate): 51
Number of revertant colonies ([3]; TA98, +S9 mix, 1667 µg/plate): 57
Number of revertant colonies ([3]; TA98, +S9 mix, 5000 µg/plate): 88
potential to induce reverse mutations [3]: showed potential to induce reverse mutations
Number of revertant colonies TA100 ([4]; dose 2.3 µg/plate): 99
Number of revertant colonies TA100 ([4]; dose 6.9 µg/plate): 98
Number of revertant colonies TA100 ([4]; dose 21 µg/plate): 71
Number of revertant colonies TA100 ([4]; dose 62 µg/plate): 96
Number of revertant colonies TA100 ([4]; dose 185 µg/plate): 85
Number of revertant colonies TA100 ([4]; dose 556 µg/plate): 86
Number of revertant colonies TA100 ([4]; dose 1667 µg/plate): 69
Number of revertant colonies TA100 ([4]; dose 5000 µg/plate): 82
Number of revertant colonies ([4]; TA100, +S9 mix, 2.3 µg/plate): 139
Number of revertant colonies ([4]; TA100, +S9 mix, 6.9 µg/plate): 203
Number of revertant colonies ([4]; TA100, +S9 mix, 21 µg/plate): 237
Number of revertant colonies ([4]; TA100, +S9 mix, 62 µg/plate): 185
Number of revertant colonies ([4]; TA100, +S9 mix, 185 µg/plate): 151
Number of revertant colonies ([4]; TA100, +S9 mix, 556 µg/plate): 119
Number of revertant colonies ([4]; TA100, +S9 mix, 1667 µg/plate): 100
Number of revertant colonies ([4]; TA100, +S9 mix, 5000 µg/plate): 98

[N-]=[N+]=[N-].[Na+] [SA]
Number of revertant colonies ([2]; TA1535, -S9 mix, 0.5 µg/plate (positive control)): 217 and 222
